From US11661437B2, “Steroid derivative regulators, method for preparing the same, and uses thereof” (priority 2018, dated 2023) come the findings set out here.

This test has as its system GABA-A receptor. Nature of the test: 35S-TBPS binding assay on rat cerebral cortex cell membrane. The following applies: 2 nM 35S-TBPS, GABA added, read-out: 35S-TBPS bindng test, IC50 on inhibiting the TBPS binding activity. More on the design: species or system Sprague-Dawley rat. On the procedure:
1.2.1 Extraction of Cerebral Cortex Cell Membrane:
1. The cerebral cortex of male Sprague-Dawley rat was isolated.
2. A pre-chilled 0.32 M sucrose solution (one tablet of protease inhibitor was added per 100 ml) was added to the cerebral cortex (the volume of sucrose solution was 10 times the volume of the cerebral cortex). The mixture was crushed with a 50 ml glass tissue homogenizer in batches and mixed well.
3. The mixture was centrifuged at 1500 g, 4° C. for 10 minutes, and the supernatant was collected.
4. The mixture was centrifuged at 20000 g, 4° C. for 30 minutes, and the supernatant was discarded.
5. The precipitate was resuspended with the pre-chilled phosphate buffer saline (PBS) (one tablet of protease inhibitor was added per 100 ml). An average of 4 ml of PBS was added per rat, and the mixture was mixed well with a glass tissue homogenizer.
6. The mixture was centrifuged at 10000 g, 4° C. for 10 minutes, and the supernatant was discarded.
7. Steps 5 and 6 were repeated three times.
8. Finally, the precipitate was resuspended with 4 volumes of PBS. The resulting solution was dispensed, frozen in liquid nitrogen, and stored at −80° C.
9. The protein concentration was measured by the bicinchoninic acid (BCA) method.
1.2.2 ^35S-TBPS Binding Assay
1. 230 μL of PBS was added to each well of a well plate with 1.1 ml volume.
2. 60 μL of the cerebral cortex cell membrane (5 μg/μL) solution was added to each well, and the mixture was mixed well.
3. The test compound (3 μL per well) was added, and the plate was incubated at 25° C. for 5 minutes. The DMSO concentration was 1%. The initial compound concentration was 1 NM, and a 3-fold dilution in gradient was carried out to obtain a total of 8 gradients and 2 replicates. 1% DMSO was used as a negative control, and 10 μM P026-2 was used as a positive control.
4. GABA was added at a final concentration of […], and incubated at 25° C. for 5 minutes. 1 mM GABA solution was formulated, and 1.5 μL of the solution was added to each well.
5. ^35S-TBPS was added at a final concentration of 2 nM. The concentration of isotope mother solution was 9.7 μM. After dilution with PBS for 100 times, 6 μL of the diluted isotope solution was added to each well.
6. The plate was incubated at 4° C. for 20 hours.
7. The FilterMate GF/C plate was pre-treated with 0.5% PEI, and incubated at 4° C. for 1 hour.
8. The FilterMate GF/C plate was washed with Universal Harvester twice, 50 ml PBS each time.
9. The reaction solution was transferred to the GF/C plate, and each well was washed 4 times with 900 μL PBS.
10. The washed GF/C plate was placed at 55° C. and dried for 10 minutes.
11. 40 μL of scintillation solution was added to each well, and the CPM value was read with TopCount.
1.2.3 Experimental Data Processing Method:
In the experiment, the CPM (counts per minute) value was read with TopCount. According to the readings of the High control (DMSO) and the Low control (10 μM of the positive compound) experimental groups, the % inhibition was calculated based on the following formula: % Inhibition=100×(CPMHigh control−CPMSample)/(CPMHigh control−CPMLow control)
The IC50 of the compound was calculated according to the following 4-parameter nonlinear logic formula: Y=Bottom+(Top−Bottom)/(1+10^((Log IC50−X)*Hill Slope)),
The effect of the compound of the present invention on the TBPS binding activity was determined by the above test, and the measured IC50 values are shown in Table 1.
For `C[C@@]1(O)CC[C@@]2(F)[C@H](CC[C@H]3[C@@H]4CC[C@H](C(=O)Cn5cc(Cl)cn5)[C@@]4(C)CC[C@@H]32)C1` [Example 37, 2-(4-Chloro-1H-pyrazol-1-yl)-1-((3R,5R,8S,9S,10R,13S,14S,17S)-10-fluoro-3-hydroxy-3,13-dimethylhexadecahydro-1H-cyclopenta[a]phenanthren-17-yl)ethan-1-one], the half-maximal inhibitory concentration (IC50) came out at 0.017 µM. On to `C[C@@]1(O)CC[C@@]2(F)[C@H](CC[C@H]3[C@@H]4CC[C@H](C(=O)Cn5cc(C#N)c(C6CC6)n5)[C@@]4(C)CC[C@@H]32)C1` [Example 40, 3-Cyclopropyl-1-(2-((3R,5R,8S,9S,10R,13S,14S,17S)-10-fluoro-3-hydroxy-3,13-dimethylhexadecahydro-1H-cyclopenta[a]phenanthren-17-yl)-2-oxoethyl)-1H-pyrazole-4-carbonitrile], for which the IC50 was 0.012 µM. As for `C[C@@]1(O)CC[C@@]2(F)[C@H](CC[C@H]3[C@@H]4CC[C@H](C(=O)CNc5cnoc5)[C@@]4(C)CC[C@@H]32)C1` [Example 45, 1-((3R,5R,8S,9S,10R,13S,14S,17S)-10-Fluoro-3-hydroxy-3,13-dimethylhexadecahydro-1H-cyclopenta[a]phenanthren-17-yl)-2-(isoxazol-4-ylamino)ethan-1-one], the IC50 was 0.0344 µM. For the compound `COc1ccc2nn(CC(=O)[C@H]3CC[C@H]4[C@@H]5CC[C@@H]6C[C@](C)(O)CC[C@]6(F)[C@H]5CC[C@]34C)nc2c1` [Example 46, 1-((3R,5R,8S,9S,10R,13S,14S,17S)-10-Fluoro-3-hydroxy-3,13-dimethylhexadecahydro-1H-cyclopenta[a]phenanthren-17-yl)-2-(5-methoxy-2H-benzo[d][1,2,3]triazol-2-yl)ethan-1-one], the IC50 was 0.0056 µM. As for `COc1ccc2nnn(CC(=O)[C@H]3CC[C@H]4[C@@H]5CC[C@@H]6C[C@](C)(O)CC[C@]6(F)[C@H]5CC[C@]34C)c2c1` [Example 47, 1-((3R,5R,8S,9S,10R,13S,14S,17S)-10-Fluoro-3-hydroxy-3,13-dimethylhexadecahydro-1H-cyclopenta[a]phenanthren-17-yl)-2-(6-methoxy-1H-benzo[d][1,2,3]triazol-1-yl)ethan-1-one], the IC50 came to 0.0073 µM. `COc1ccc2c(c1)nnn2CC(=O)[C@H]1CC[C@H]2[C@@H]3CC[C@@H]4C[C@](C)(O)CC[C@]4(F)[C@H]3CC[C@]12C` [Example 48, 1-((3R,5R,8S,9S,10R,13S,14S,17S)-10-Fluoro-3-hydroxy-3,13-dimethylhexadecahydro-1H-cyclopenta[a]phenanthren-17-yl)-2-(5-methoxy-1H-benzo[d][1,2,3]triazol-1-yl)ethan-1-one]: the IC50 was 0.0073 µM. Then `C[C@@]1(O)CC[C@@]2(F)[C@H](CC[C@H]3[C@@H]4CC[C@H](C(=O)COc5cncnc5)[C@@]4(C)CC[C@@H]32)C1` [Example 49, 1-((3R,5R,8S,9S,10R,13S,14S,17S)-10-Fluoro-3-hydroxy-3,13-dimethylhexadecahydro-1H-cyclopenta[a]phenanthren-17-yl)-2-(pyrimidin-5-yloxy)ethan-1-one], with 0.048 µM; and `C[C@@]1(O)CC[C@@]2(F)[C@H](CC[C@H]3[C@@H]4CC[C@H](C(=O)Cn5cc(-c6ncco6)cn5)[C@@]4(C)CC[C@@H]32)C1` [Example 52, 1-((3R,5R,8S,9S,10R,13S,14S,17S)-10-Fluoro-3-hydroxy-3,13-dimethylhexadecahydro-1H-cyclopenta[a]phenanthren-17-yl)-2-(4-(oxazol-2-yl)-1H-pyrazol-1-yl)ethan-1-one], with 0.023 µM. In the case of `CSc1cnn(CC(=O)[C@H]2CC[C@H]3[C@@H]4CC[C@@H]5C[C@](C)(O)CC[C@]5(F)[C@H]4CC[C@]23C)c1` [Example 55, 1-((3R,5R,8S,9S,10R,13S,14S,17S)-10-Fluoro-3-hydroxy-3,13-dimethylhexadecahydro-1H-cyclopenta[a]phenanthren-17-yl)-2-(4-(methylthio)-1H-pyrazol-1-yl)ethan-1-one] it was 0.0425 µM. Regarding `C[C@@]1(O)CC[C@@]2(F)[C@H](CC[C@H]3[C@@H]4CC[C@H](C(=O)Cn5cc([N+](=O)[O-])cn5)[C@@]4(C)CC[C@@H]32)C1` [Example 58, 1-((3R,5R,8S,9S,10R,13S,14S,17S)-10-Fluoro-3-hydroxy-3,13-dimethylhexadecahydro-1H-cyclopenta[a]phenanthren-17-yl)-2-(4-nitro-1H-pyrazol-1-yl)ethan-1-one], the IC50 stood at 0.0378 µM. Consider `CCOC(=O)c1cnn(CC(=O)[C@H]2CC[C@H]3[C@@H]4CC[C@@H]5C[C@](C)(O)CC[C@]5(F)[C@H]4CC[C@]23C)c1` [Example 59, Ethyl 1-(2-((3R,5R,8S,9S,10R,13S,14S,17S)-10-fluoro-3-hydroxy-3,13-dimethylhexadecahydro-1H-cyclopenta[a]phenanthren-17-yl)-2-oxoethyl)-1H-pyrazole-4-carboxylate], for which the IC50 was found to be 0.0094 µM. As for `C[C@@]1(O)CC[C@@]2(F)[C@H](CC[C@H]3[C@@H]4CC[C@H](C(=O)Cn5cc(C(=O)N6CCC6)cn5)[C@@]4(C)CC[C@@H]32)C1` [Example 62, 2-(4-(Azetidine-1-carbonyl)-1H-pyrazol-1-yl)-1-((3R,5R,8S,9S,10R,13S,14S,17S)-10-fluoro-3-hydroxy-3,13-dimethylhexadecahydro-1H-cyclopenta[a]phenanthren-17-yl)ethan-1-one], the concentration for half-maximal inhibition (IC50) is 0.0071 µM. On to `C[C@@]1(O)CC[C@]2(F)C3CC[C@]4(C)[C@@H](C(=O)Cn5ncc(C6CC6)n5)CC[C@H]4[C@@H]3CC[C@@H]2C1` (stereo partly drawn) [Example 63, 2-(4-Cyclopropyl-2H-1,2,3-triazol-2-yl)-1-((3R,5R,8S,10R,13S,14S,17S)-10-fluoro-3-hydroxy-3,13-dimethylhexadecahydro-1H-cyclopenta[a]phenanthren-17-yl)ethan-1-one], for which the IC50 came out at 0.0258 µM. Take `C[C@@]1(O)CC[C@]2(F)C3CC[C@]4(C)[C@@H](C(=O)Cn5cc(C6CC6)nn5)CC[C@H]4[C@@H]3CC[C@@H]2C1` (stereo partly drawn) [Example 64, 2-(4-Cyclopropyl-1H-1,2,3-triazol-1-yl)-1-((3R,5R,8S,10R,13S,14S,17S)-10-fluoro-3-hydroxy-3,13-dimethylhexadecahydro-1H-cyclopenta[a]phenanthren-17-yl)ethan-1-one]: the IC50 was found to be 0.0248 µM. For `C[C@]1(O)CC[C@@]2(F)[C@H](CC[C@H]3[C@@H]4CC[C@H](C(=O)CNS(=O)(=O)c5ccccc5)[C@@]4(C)CC[C@@H]32)C1` [Example 71, N-(2-((3S,5R,8S,9S,10R,13S,14S,17S)-10-Fluoro-3-hydroxy-3,13-dimethylhexadecahydro-1H-cyclopenta[a]phenanthren-17-yl)-2-oxoethyl)benzenesulfonamide], the concentration for half-maximal inhibition (IC50) came to 0.049 µM.
